Source: patent publication US10076576B2, “Minimally toxic prodrugs” (priority 2012, dated 2018)
“And” between values parts separate entries of the source, which are not always exact repeats. Equal entries are not always repeated. “Also recorded” adds a separate entry of the source.

Tests used:
[1] = tested on: MX-1 mammary carcinoma human xenografts; test: Efficacy after repeated iv bolus, MX-1 xenograft; assay type: in vivo, NMRI nude mice; details: day 29
Protocol: FIG. 3. […] Results represent the mean body weight and tumor volume evolution±SEM (n=4).
The anti-tumor activity of doxorubicin and PhAc-ALGP-Dox was tested in models of athymic mice (nude/nude NMRI) carrying ectopic xenografts of human LS-174T colon carcinoma or MX-1 mammary carcinoma.
LS174T and MX-1 tumors were established by a subcutaneous implantation of cells (3×10^6 and 10^7 cells injected respectively) in the right flank of 6 weeks old female NMRI nude mice (Harlan). […] The day of the first injection animals were randomly assigned to groups of 4 animals. […] Compounds were delivered by bolus intravenous injection (i.v.) in the lateral tail vein at 10 μl/g. During the course of the experiment, clinical signs, body weight and tumor volume were controlled twice a week. Results are presented as the evolution of mean tumor volume as a function of time. Optimal T/C (ratio of mean tumor volume of treated versus control mice) values were used as a measure of treatment efficacy.

[2] = biological target: T1, TOP (recombinant human thimet oligopeptidase) (Homo sapiens, UniProt P52888); test: Reactivation assay with purified TOP; assay type: biochemical; details: 3 h at 37° C., 50 μM compound
T1 construct: purchased R&D systems 3439-ZN
Protocol: (§1) TOP (recombinant human thimet oligopeptidase, R&D systems, Ref 3439-ZN) was diluted at 10 nM in a solution of 50 mM Tris-HCl pH 7.4/0.5M NaCl/0.1M DTT. CD26 and FAP were diluted at 1 μg/mL in a Tris-HCl pH 7.5 buffer. Reactions were initiated by addition of 50 μM of each compound to enzymes solutions (1 V enzyme solution+1 V 100 μM drug solution). Samples were incubated for 0, 1, or 3 hours at 37° C. in a water bath in the presence of purified enzymes. Fifty μL of sample were collected at each time point and processed as described above for human plasma. Activation of Suc-βALAL-dox was tested in parallel as a reference.

[3] = tested on: LoVo colon carcinoma xenografts; test: Activation at the tumor site after single iv bolus, LoVo xenograft; assay type: in vivo, NMRI nude mice; details: 24 hours after single iv injection, 15-620 μmol/kg
Protocol: FIG. 6. PhAc-ALGP-Dox was administered at increasing concentrations (15, 35, 50, 100, 200, 300, 460, 620 μmol/kg) by intravenous injection to NMRI nude mice bearing LoVo colon carcinoma xenografts (3 mice per group). After 24 hours, mice were sacrificed and tumors were collected. Doxorubicin tumor concentration was determined after extraction by HPLC analysis. Results represent the average Doxorubicin tumor concentration (pmol/mg protein)±SD.
Drugs or controls were administered four weeks after subcutaneous implantation of the xenograft. […] The PhAc-ALGP-Dox conjugate was dissolved in saline at increasing doses (1.5, 3.5, 5, 10, 20, 30, 46, and 62 mM). […] Twenty-four hours after injection, mice were sacrificed by cervical dislocation and tumors were collected, rinsed in phosphate buffer saline and homogenized. An extraction of drugs from tumor homogenates was performed with acetonitrile and Doxorubicin present in tumors was quantified by HPLC analysis.

[4] = tested on: LS-174T tumor cell secreted peptidases; test: Reactivation assay in LS174T tumor cell conditioned medium; assay type: biochemical, human; details: 5 h at 37° C.
Protocol: Sub-confluent cultures of LS-174T tumor cells were washed twice with a saline phosphate buffer solution, and fresh culture medium (DMEM-F12 without phenol red) containing 0.02% bovine serum albumin is added (100 μl/cm^2). After 24 hours incubation, the conditioned medium is collected, centrifuged for 10 minutes at 300 g, buffered with 1 M Tris-HCl, pH 7.4 (1 volume of buffer+19 volumes of medium) and concentrated 20 times by […] (cutoff threshold of 10 kDa).
Drug compounds (50 μM) were incubated for 0, 1, 3 or 5 hours at 37° C. in the presence of freshly prepared LS174T tumor cell conditioned medium. Fifty μL of sample were collected at each time point and processed as described above for human plasma.

[5] = Stability in citrated human blood; details: 5 hours incubation at 37° C. in citrated human blood, 50 μM
[6] = Pharmacokinetics and heart quantification after single ip injection; details: for Dox concentration in heart after 24 h: ip 92 μmol/kg of the labelled drug, ± SD
Protocol: Time evolution of blood concentration of PhAc-ALGP-Dox and its metabolites (A) or of Doxorubicin (B) after intraperitoneal injection to OF-1 female wild type mice at the equimolar dose of 92 μmol/kg. Results represent the mean concentration±SD (n=3).
Pharmacokinetic tissue distribution studies were performed using OF-1 mice. Doxorubicin and PhAc-ALGP-Dox were dissolved in saline at the dose of 9.2 mM and administered to mice by intraperitoneal route (10 μL/g, 6 mice per group). At different time points after drug administration (5 min, 30 min, 1 h, 4 h, and 24 h), blood samples were collected from the lateral tail vein of three mice using EDTA-coated microtubes (Starsted). After 24 h, 3 mice per group were sacrificed by cervical dislocation and hearts were collected. They were incised and rinsed carefully in phosphate buffer saline (to eliminate blood in the cardiac cavities), dried on paper and frozen in liquid nitrogen. They were stored until analysis. The hearts were homogenized with an Ultraturrax homogenizer in 1.5 mL water. The protein concentration was measured using the microBCA protein assay (Pierce). The drug tissue quantification was made by HPLC after extraction: 150 μL of acetonitrile was added to the 50 μL samples. Samples were vortexed and centrifuged for 10 min at 13 000 rpm at room temperature. Supernatant was collected. Samples were buffered by addition of 200 mM formiate buffer pH 4.5 (1 V sample supernatant+3 V buffer) before HPLC analysis (fluo detection ex=235 nm em=560 nm).

CD26 = CD26 (Homo sapiens, UniProt P27487); test: Reactivation assay with purified CD26; assay type: biochemical; details: CD26 1 μg/ml
Protocol: as §1

[7] = In vitro cytotoxicity on Cor.At cardiomyocytes (neutral red uptake); assay type: cell-based, mouse; details: mouse, 20 μg/ml
Protocol: FIG. 5. In vitro cellular toxicity of PhAc-ALGP-Dox and Doxorubicin on Cor.At® cells (mouse embryonic stem cell derived cardiomyocytes). As non-specific control, the test was also performed on inactivated mouse embryonic fibroblasts (MEF). Cells were cultured for 48 h in the presence of drugs and a neutral red uptake test was performed to determine cell viability. Results represent the cytotoxicity curves. The IC50 values were calculated from the cytotoxicity curves using the Prism GraphPad software 5.0.
The in vitro cardiotoxicity test was carried out in a relevant and predictive in vitro model for cardiac safety screening in early lead optimization using mouse embryonic stem cell derived cardiomyocytes (Cor.At®, Axiogenesis (Germany)). Cor.At® cardiomyocytes provide a standardized, homogenous and reproducible cell system for the in vitro classification of a compound's cardio-cytotoxic potential. After incubation with test compounds, the neutral red uptake test was used to determine effects which directly affect the viability and integrity of cardiac cells when compared to a non-specific reference cell type, e.g. mouse fibroblasts (MEF).

[8] = biological target: T2, CD10 (recombinant human neprilysin) (Homo sapiens, UniProt P08473); test: Reactivation assay with purified CD10; assay type: biochemical; details: 3 h at 37° C., 50 μM compound
T2 construct: purchased R&D systems 1182-ZN
T2 sequence (P08473 52-750 limits assumed): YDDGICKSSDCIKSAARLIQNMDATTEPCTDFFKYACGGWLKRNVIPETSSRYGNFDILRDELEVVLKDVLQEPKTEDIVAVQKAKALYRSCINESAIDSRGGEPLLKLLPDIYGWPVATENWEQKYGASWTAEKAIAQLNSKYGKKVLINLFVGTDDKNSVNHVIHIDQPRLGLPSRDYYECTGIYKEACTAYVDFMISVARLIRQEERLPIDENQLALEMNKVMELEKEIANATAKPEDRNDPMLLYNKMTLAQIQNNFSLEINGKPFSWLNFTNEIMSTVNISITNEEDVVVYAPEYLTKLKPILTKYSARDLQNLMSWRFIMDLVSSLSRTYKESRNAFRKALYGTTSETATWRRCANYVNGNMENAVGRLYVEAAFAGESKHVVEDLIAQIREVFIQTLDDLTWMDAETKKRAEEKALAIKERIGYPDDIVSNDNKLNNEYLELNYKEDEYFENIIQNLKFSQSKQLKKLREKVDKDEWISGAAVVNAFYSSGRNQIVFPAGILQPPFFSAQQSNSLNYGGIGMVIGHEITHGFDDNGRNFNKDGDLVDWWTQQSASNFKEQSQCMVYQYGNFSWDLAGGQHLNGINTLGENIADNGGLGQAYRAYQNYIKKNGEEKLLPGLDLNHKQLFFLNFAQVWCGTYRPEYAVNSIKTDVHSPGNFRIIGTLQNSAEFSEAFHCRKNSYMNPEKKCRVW

T1 sequence (P52888 whole entry): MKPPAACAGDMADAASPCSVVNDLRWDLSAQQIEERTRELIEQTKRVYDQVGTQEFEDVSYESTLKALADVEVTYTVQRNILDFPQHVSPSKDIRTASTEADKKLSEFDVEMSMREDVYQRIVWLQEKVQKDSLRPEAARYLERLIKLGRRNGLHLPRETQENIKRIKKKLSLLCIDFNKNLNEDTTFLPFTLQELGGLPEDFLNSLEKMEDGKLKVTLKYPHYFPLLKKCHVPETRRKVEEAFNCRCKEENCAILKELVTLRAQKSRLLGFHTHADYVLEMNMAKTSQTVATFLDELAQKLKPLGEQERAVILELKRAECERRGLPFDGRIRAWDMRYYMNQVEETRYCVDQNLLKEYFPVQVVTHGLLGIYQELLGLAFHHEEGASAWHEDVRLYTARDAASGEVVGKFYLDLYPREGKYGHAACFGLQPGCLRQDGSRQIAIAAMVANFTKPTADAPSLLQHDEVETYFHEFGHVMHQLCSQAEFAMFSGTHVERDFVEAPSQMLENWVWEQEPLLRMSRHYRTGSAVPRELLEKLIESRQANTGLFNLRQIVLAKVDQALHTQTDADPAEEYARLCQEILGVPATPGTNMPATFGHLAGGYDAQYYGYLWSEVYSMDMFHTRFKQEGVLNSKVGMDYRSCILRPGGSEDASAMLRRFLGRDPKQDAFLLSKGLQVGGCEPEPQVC
Sequence of CD26 (P27487 whole entry): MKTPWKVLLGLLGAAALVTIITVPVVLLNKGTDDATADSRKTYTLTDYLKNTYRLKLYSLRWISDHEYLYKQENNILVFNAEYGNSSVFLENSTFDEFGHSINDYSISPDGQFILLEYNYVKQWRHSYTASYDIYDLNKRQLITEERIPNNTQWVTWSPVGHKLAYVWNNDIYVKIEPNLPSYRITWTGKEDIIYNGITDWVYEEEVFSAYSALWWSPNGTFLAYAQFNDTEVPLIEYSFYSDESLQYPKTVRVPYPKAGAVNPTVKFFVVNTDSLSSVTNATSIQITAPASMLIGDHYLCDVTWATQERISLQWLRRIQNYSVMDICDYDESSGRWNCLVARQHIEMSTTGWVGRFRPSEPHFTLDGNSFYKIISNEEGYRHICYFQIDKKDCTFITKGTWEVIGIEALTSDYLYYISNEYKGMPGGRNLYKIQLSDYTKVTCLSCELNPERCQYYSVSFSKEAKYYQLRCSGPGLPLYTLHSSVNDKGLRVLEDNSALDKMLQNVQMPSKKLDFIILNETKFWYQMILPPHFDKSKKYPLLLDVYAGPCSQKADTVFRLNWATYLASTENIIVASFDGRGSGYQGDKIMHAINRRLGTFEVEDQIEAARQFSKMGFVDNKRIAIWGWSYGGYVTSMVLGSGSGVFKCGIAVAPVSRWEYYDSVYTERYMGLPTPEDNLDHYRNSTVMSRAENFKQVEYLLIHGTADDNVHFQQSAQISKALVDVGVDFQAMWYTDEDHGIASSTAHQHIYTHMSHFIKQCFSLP

In the case of `COc1cccc2c1C(=O)c1c(O)c3c(c(O)c1C2=O)CC(O)(C(=O)CO)CC3OC1CC(NC(=O)C2CCCN2C(=O)CNC(=O)C(CC(C)C)NC(=O)C(C)NC(=O)CP(=O)(O)O)C(O)C(C)O1` (centres unmarked) [PhAc-ALGP-Dox, PhAc-ALGP-doxorubicin], the “TGI [% (day)]” value ([1]; 100 μmol/kg iv day 0, 3, 6, 9) is reported as 60 (29) %, the “% Metabolites released after 3 h (TOP 5 nM)” value [2] is reported as 72% and 72 ± 14% and the “injected dose at which Dox tumor concentration reaches a plateau” value [3] is reported as 200 µmol/kg. For the same compound, the “% Metabolites released after 5 h (LS174T CM20xcc)” value ([4]; 50 μM compound) was 81 ± 31%, the “% Dox detected after 5 h (LS174T conditioned medium)” value ([4]; metabolite Dox) was 24% and the “% GP-Dox detected after 5 h (LS174T conditioned medium)” value ([4]; metabolite GP-Dox) was 56%. For the same compound, the “% metabolites released: Dox” value [5] was 6%, the “% metabolites released: GP-dox” value [5] was 3% and the “% metabolites released: P-Dox” value [5] was 0%. For the same compound, the total % metabolites [5] was 9%, the “percentage of the injected dose reaching the blood compartment in the first five minutes” value ([6]; ip 92 μmol/kg) was “about 1%” and the “time after which the conjugate was no longer detected in blood” value ([6]; ip 92 μmol/kg) was 4 h. The “Doxorubicin cardiac accumulation versus Doxorubicin injection (times less)” value ([6]; ip 92 μmol/kg equimolar, 24 h) was 19 times, the “Dox concentration in heart after 24 h” value [6] was 13 ± 3 pmol/mg protein and the “hydrolysis by CD26 (in words)” value (CD26) was “Neither CD26 nor FAP hydrolized; also recorded: did not hydrolyze”. The viability at 48 h, 20 µg/mL [7] was 37% and the “% Metabolites released after 3 h (CD10 10 nM)” value [8] was 25% and 25 ± 4%.

For `COc1cccc2c1C(=O)c1c(O)c3c(c(O)c1C2=O)C[C@@](O)(C(=O)CO)C[C@@H]3O[C@H]1C[C@H](N)[C@H](O)[C@H](C)O1` [Doxorubicin, reference compound], the “TGI [% (day)]” value ([1]; 8 μmol/kg iv day 0, 3, 6, 9) was 65 (29) %, the “percentage of the injected dose reaching the blood compartment in the first five minutes” value ([6]; ip 92 μmol/kg) was “about 2.5%” and the “Dox concentration in heart after 24 h” value [6] was 253 ± 60 pmol/mg protein.
